Test results from US20260209210A1, “NEW SUBSTITUTED INDOLE-2-CARBOXAMIDES AS PHGDH INHIBITORS” (Boehringer Ingelheim International GmbH, priority 2022, published 2026).

Key:
[1] = target: T1, PHGDH (Homo sapiens, UniProt O43175); test: 3-Phosphoglycerate dehydrogenase (PHGDH) Fluorescence Intensity Assay; format: biochemical; settings: full length recombinant PHGDH, 500 μM NAD and 500 μM 3-PG, 240 minutes incubation, room temperature
T1 construct: The full length version of PHGDH enzyme was expressed in BL21 (DE3) E. coli; HIS-tag (N); TEV cleavage site (N); made in house; host or cells: E. coli BL21 (DE3)
T1 sequence (O43175 1-533): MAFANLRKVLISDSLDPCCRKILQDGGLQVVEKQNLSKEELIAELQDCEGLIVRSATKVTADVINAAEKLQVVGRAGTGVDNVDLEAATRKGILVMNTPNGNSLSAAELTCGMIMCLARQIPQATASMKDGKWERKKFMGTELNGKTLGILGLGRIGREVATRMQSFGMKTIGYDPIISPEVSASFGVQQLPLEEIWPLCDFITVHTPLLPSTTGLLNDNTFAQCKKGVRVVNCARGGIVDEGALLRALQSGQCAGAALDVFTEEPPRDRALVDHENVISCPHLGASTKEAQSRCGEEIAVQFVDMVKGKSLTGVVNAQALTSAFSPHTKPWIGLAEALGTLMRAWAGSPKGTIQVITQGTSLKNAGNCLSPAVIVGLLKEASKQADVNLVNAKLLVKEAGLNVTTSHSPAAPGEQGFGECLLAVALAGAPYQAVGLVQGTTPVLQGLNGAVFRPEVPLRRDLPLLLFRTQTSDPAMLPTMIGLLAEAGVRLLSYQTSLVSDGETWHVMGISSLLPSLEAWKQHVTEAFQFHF
Source text: 3-Phosphoglycerate dehydrogenase (PHGDH) Fluorescence Intensity Assay This assay is used to identify compounds which inhibit the enzymatic activity of PHGDH which catalyzes the reaction of 3-Phosphoglycerate (3-PG) and NAD to 3-Phosphohydroxypyruvate and NADH.
The produced NADH is used in a coupled reaction for Diaphorase mediated reduction of Resazurin to Resorufin which can be measured in a Fluorescence Intensity readout.
The full length version of PHGDH enzyme was expressed in BL21 (DE3) E. coli through transformation with a plasmid containing the PHGDH cDNA with an N-terminal HIS-tag and a TEV cleavage site. The recombinant protein was then isolated with Ni-NTA beads and eluted on MONO Q ion exchange chromatography columns. The fractions corresponding to PHGDH were de-salted and concentrated to be used in the biochemical assay.
The 3-phosphoglycerate substrate was purchased from Sigma. NAD, Diaphorase and Resazurin were purchased from Sigma Aldrich.
Compounds are dispensed onto assay plates (black, low volume, flat bottom 384 well, Corning) using an Access Labcyte Workstation with the Labcyte Echo 55× from a DMSO solution. For the chosen highest assay concentration of 100 μM, 150 nl of compound solution are transferred from a 10 mM DMSO compound stock solution. A series of 11 concentrations (10 1:5 steps) is transferred for each compound.
DMSO is added such that every well has a total of 150 nl compound solution.
The assay has been performed using 500 μM NAD and 500 μM 3-PG (final assay concentrations).
5 μl of PHGDH protein (final assay concentration 100 ng/ml) in assay buffer (125 mM Tris-HCl, pH 7.5; 56.25 mM hydrazine sulfate pH 9.0; 2.5 mM EDTA; assay specific NAD concentration; 0.0125% Tween20) are added to the 150 nl of compounds.
10 μl of a mix containing assay specific 3-PG concentration (500 μM), Resazurin (25 µM final assay concentration) and Diaphorase (35 μg/ml final assay concentration) are added. Plates are kept at room temperature. After 240 minutes incubation time the fluorescence signal is measured in a PerkinElmer Envision HTS Multilabel Reader with an excitation wavelength at 530-560 nm and an emission wavelength at 590 nm.
Each plate contains negative controls (diluted DMSO instead of test compound; reaction as described with PHGDH protein) and positive controls (diluted DMSO instead of test compound; reaction as described with buffer instead of PHGDH protein). Negative and positive control values are used for normalization.
A known inhibitor of PHGDH activity is used as internal control.
IC50 values are calculated and analyzed in the MEGALAB IC50 application using a 4 parametric logistic model.

[2] = Drug transport across human Caco-2 cells (permeability); format: in vitro ADME; settings: pH 7.2, 37° C.; for efflux ratio: PEBA/PEAB, Caco-2 monolayers; for Papp A→B: apical-to-basal (absorptive) apparent permeability across Caco-2 monolayers, read-out: PEAB; for Papp B→A: basal-to-apical (secretory) apparent permeability across Caco-2 monolayers, read-out: PEBA
Method: The assay provides information on the potential of a compound to pass the cell membrane, on the extent of oral absorption as well as on whether the compound is actively transported by uptake and/or efflux transporters. Permeability measurements across polarized, confluent Caco-2 cell monolayers grown on permeable filter supports are used as the in vitro absorption model. Apparent permeability coefficients (PE) of the compounds across the Caco-2 monolayers are measured (pH 7.2, 37° C.) in apical-to-basal (AB) (absorptive) and basal-to-apical (BA) (secretory) transport direction. AB permeability (PEAB) represents drug absorption from the intestine into the blood and BA permeability (PEBA) drug secretion from the blood back into the intestine via both passive permeability as well as active transport mechanisms mediated by efflux and uptake transporters that are expressed on the Caco-2 cells. The compounds are assigned to permeability/absorption classes by comparison of the AB permeabilities with the AB permeabilities of reference compounds with known in vitro permeability and oral absorption in the human. Identical or similar permeabilities in both transport directions indicate passive permeation, vectorial permeability points to additional active transport mechanisms. […] Active transport is concentration-dependently saturable.
Caco-2 cells obtained from the Leibniz Institute DSMZ-German Collection of Microorganisms and Cell Cultures GmbH (1-2×10^5 cells/1 cm^2 area) are seeded on filter inserts (Costar transwell polycarbonate or PET filters, 0.4 μm pore size) and cultured (DMEM) for 10 to 25 days. Compounds are dissolved in appropriate solvent (like DMSO, 1-20 mM stock solutions). Stock solutions are diluted with HTP-4 buffer (128.13 mM NaCl, 5.36 mM KCl, 1 mM MgSO4, 1.8 mM CaCl2), 4.17 mM NaHCO3, 1.19 mM Na2HPO4×7H2O, 0.41 mM NaH2PO4×H2O, 15 mM HEPES, 20 mM glucose, pH 7.2) containing 0.25% BSA to prepare the transport solutions (0.1-300 μM compound, final DMSO≤0.5%). The transport solution (TL) is applied to the apical or basolateral donor side for measuring A-B or B-A permeability (3 filter replicates), respectively. The receiver side contains HTP-4 buffer supplemented with 0.25% BSA. Samples are collected at the start and end of experiment from the donor and at various time intervals (0, 30, 60, and 90 minutes) for up to 2 hours also from the receiver side for concentration measurement by HPLC-MS/MS or scintillation counting. Sampled receiver volumes are replaced with fresh receiver solution. Compounds are assigned to the following permeability/oral absorption classes: • Very low: […] • Low: 1×10^−7 cm/s<PEAB<6×10^−7 cm/sec • Moderate: 6×10^−7 cm/sec<PEAB<5×10^−6 cm/sec • Good: 5×10^−6 cm/s<[…]
Compounds are classified with respect to (permeability) efflux ratios (PEBA/PEAB) given below whether they are likely to be actively transported: • no: 0.67<=ratio <=1.5 • probable (active efflux): 1.5<ratio <=2 • probable (active uptake): […] • yes (active efflux): 2<ratio • yes (active uptake): ratio <0.5

In the case of Cc1cc2c(cc(C(=O)N[C@H](C)c3ccc(C4(C(=O)O)CCOCC4)cc3)n2C)c(Cl)c1F [Example 3], the IC50 [1] is reported as 0.01 µM, the efflux ratio [2] is reported as 0.6 and the Papp A→B [2] is reported as 160 nm/s. For the same compound, the Papp B→A [2] was 91 nm/s.

With Cc1cc(Cl)c2cc(C(=O)N[C@H](C)c3ccc(S(=O)(=O)C4(C(=O)O)CCOCC4)cc3)n(C)c2c1 [Comp-1, reference compound] the Papp A→B [2] was < 4 nm/s and the Papp B→A [2] was 2 nm/s.

Cc1cc2c(cc(C(=O)N[C@H](C)c3ccc(C4(C(=O)O)CCOCC4)cc3)n2C)c(F)c1F [Example 4] showed an IC50 [1] of 0.031 µM, an efflux ratio [2] of 0.8 and a Papp A→B [2] of 120 nm/s. The Papp B→A [2] was 92 nm/s.

Work on Cc1cc2c(cc1Cl)cc(C(=O)N[C@H](C)c1ccc(C3(C(=O)O)CCOCC3)cc1)n2C [Example 6] yielded an IC50 [1] of 0.943 µM, an efflux ratio [2] of 1.1 and a Papp A→B [2] of 79 nm/s. It also gave a Papp B→A [2] of 84 nm/s.

With Cc1cc2c(cc(C(=O)N[C@H](C)c3ccc(C4(C(=O)O)CCOCC4)cc3)n2C)c(Cl)c1Cl [Example 1] the IC50 [1] was 0.006 µM, the efflux ratio [2] was 0.9 and the Papp A→B [2] was 171 nm/s. It also gave a Papp B→A [2] of 146 nm/s.

Cc1cc(Cl)c2cc(C(=O)N[C@H](C)c3ccc(S(=O)(=O)C4(C(=O)O)CCCC4)cc3)n(C)c2c1 [Comp-2, reference compound] showed an efflux ratio [2] of 1.8, a Papp A→B [2] of 2 nm/s and a Papp B→A [2] of 4 nm/s.

Compound Cc1cc(Cl)c2cc(C(=O)N[C@H](C)c3ccc(S(=O)(=O)C4(C(=O)O)CC4)cc3)n(C)c2c1 [Comp-3, reference compound] has an efflux ratio [2] of 17, a Papp A→B [2] of 1 nm/s and a Papp B→A [2] of 17 nm/s.

Work on Cc1cc2c(cc(C(=O)N[C@H](C)c3ccc(C4(C(=O)O)CCOCC4)cc3)n2C)c(F)c1Cl [Example 2] yielded an IC50 [1] of 0.027 µM, an efflux ratio [2] of 1.2 and a Papp A→B [2] of 110 nm/s. It also gave a Papp B→A [2] of 130 nm/s.

In the case of Cc1cc(Cl)c2cc(C(=O)N[C@H](C)c3ccc(C4(C(=O)O)CCOCC4)cc3)n(C)c2c1 [Example 5], the IC50 [1] is reported as 0.025 µM, the efflux ratio [2] is reported as 1.2 and the Papp A→B [2] is reported as 100 nm/s. For the same compound, the Papp B→A [2] was 120 nm/s.
